Assay results as given in PMC7288026, “Novel Class of Chalcone Oxime Ethers as Potent Monoamine Oxidase-B and Acetylcholinesterase Inhibitors” (Molecules, 2020).
Several values for one entry are separate records, joined by “and”; a condition that tells them apart may be missing. Equal values may be shown once. Read-outs that look alike come from different tables or passages of the source.

How the values were obtained:
[1] = target: T1, AChE (Type VI-S from Electrophorus electricus) (Electrophorus electricus, UniProt O42275); assay: AChE inhibition assay (DTNB / acetylthiocholine iodide); format: biochemical; conditions: for remaining activity at 10 µM / Residual Activity (%) AChE (10 µM): mean ± standard error of duplicate experiments
T1 construct: purchased Sigma-Aldrich Type VI-S
Protocol: AChE activity was measured using Type VI-S from Electrophorus electricus in the presence of 0.5 mM 5,5’-dithiobis(2-nitrobenzoic acid) and 0.5 mM acetylthiocholine iodide, as described previously. Enzymes and chemicals were purchased from Sigma–Aldrich (St. Louis, MO, USA).
Kinetic experiments were carried out at five substrate and three inhibitor concentrations.

MAO-B = target: T2, MAO-B (Homo sapiens, UniProt P27338); assay: biochemical; conditions: for SI (selectivity index, ratio of IC50 MAO-A to MAO-B): MAO-A vs. MAO-B IC50 ratio; for IC50: mean ± standard error of duplicates, reference compounds after 30 min preincubation with enzyme, read-out: IC50 (µM) MAO-B; for remaining activity at 1 µM: read-out: Residual Activity (%) MAO-B (1.0 µM)
T2 construct: purchased Sigma-Aldrich
T2 sequence (P27338 1-520): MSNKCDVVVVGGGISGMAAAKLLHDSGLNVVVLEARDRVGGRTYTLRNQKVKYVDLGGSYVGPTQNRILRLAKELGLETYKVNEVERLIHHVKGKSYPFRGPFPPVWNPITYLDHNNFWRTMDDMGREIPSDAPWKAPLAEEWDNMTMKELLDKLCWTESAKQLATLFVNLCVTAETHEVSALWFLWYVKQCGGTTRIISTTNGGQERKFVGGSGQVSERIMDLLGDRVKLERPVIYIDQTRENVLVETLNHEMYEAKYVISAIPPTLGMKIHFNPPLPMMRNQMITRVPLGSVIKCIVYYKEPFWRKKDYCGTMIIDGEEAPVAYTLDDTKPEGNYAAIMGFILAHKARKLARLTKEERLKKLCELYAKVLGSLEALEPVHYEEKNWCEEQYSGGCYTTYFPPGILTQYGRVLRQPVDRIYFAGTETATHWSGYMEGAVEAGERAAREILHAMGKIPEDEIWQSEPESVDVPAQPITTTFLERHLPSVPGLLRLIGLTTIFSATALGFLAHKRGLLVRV
Protocol: Recombinant hMAO-A and hMAO-B activities were assayed while using kynuramine (0.06 mM) and benzylamine (0.3 mM) as substrates, respectively, as described previously. […] AChE activity was measured using Type VI-S from Electrophorus electricus in the presence of 0.5 mM 5,5’-dithiobis(2-nitrobenzoic acid) and 0.5 mM acetylthiocholine iodide, as described previously. Enzymes and chemicals were purchased from Sigma–Aldrich (St. Louis, MO, USA). […]

recombinant hMAO-A = target: T3, recombinant hMAO-A (Homo sapiens, UniProt P21397); assay: MAO-A inhibition assay (kynuramine substrate); format: biochemical; conditions: for IC50: mean ± standard error of duplicates, reference compounds after 30 min preincubation with enzyme; for remaining activity at 1 µM: mean ± standard error of duplicate experiments
T3 construct: purchased Sigma-Aldrich
T3 sequence (P21397 1-527): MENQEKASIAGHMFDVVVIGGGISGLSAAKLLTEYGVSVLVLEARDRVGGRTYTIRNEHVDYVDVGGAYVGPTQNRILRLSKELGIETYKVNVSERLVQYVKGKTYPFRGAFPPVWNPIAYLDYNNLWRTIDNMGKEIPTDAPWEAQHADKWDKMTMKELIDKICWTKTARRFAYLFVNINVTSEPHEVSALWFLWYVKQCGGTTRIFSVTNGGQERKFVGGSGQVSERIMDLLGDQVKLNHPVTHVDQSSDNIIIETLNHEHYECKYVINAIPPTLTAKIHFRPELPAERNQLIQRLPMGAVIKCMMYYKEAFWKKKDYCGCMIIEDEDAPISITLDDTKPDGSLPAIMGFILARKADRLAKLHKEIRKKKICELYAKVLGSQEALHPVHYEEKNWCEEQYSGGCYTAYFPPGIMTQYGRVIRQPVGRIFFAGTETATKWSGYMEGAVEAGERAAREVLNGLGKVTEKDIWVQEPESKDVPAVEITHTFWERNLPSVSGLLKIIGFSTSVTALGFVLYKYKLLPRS
Protocol: Recombinant hMAO-A and hMAO-B activities were assayed while using kynuramine (0.06 mM) and benzylamine (0.3 mM) as substrates, respectively, as described previously. […] AChE activity was measured using Type VI-S from Electrophorus electricus in the presence of 0.5 mM 5,5’-dithiobis(2-nitrobenzoic acid) and 0.5 mM acetylthiocholine iodide, as described previously. Enzymes and chemicals were purchased from Sigma–Aldrich (St. Louis, MO, USA).
AChE inhibitory activities were also determined, except at a concentration of 10 µM. […] Kinetic experiments were carried out at five substrate and three inhibitor concentrations.

[2] = read-out: Residual Activity (%) MAO-A (1.0 µM), compound at 1.0 µM
[3] = compound at 10 µM, read-out: Residual Activity (%) AChE (10 µM)
[4] = compound at 1.0 µM, read-out: Residual Activity (%) MAO-A (1.0 µM)

T1 sequence (O42275 24-633): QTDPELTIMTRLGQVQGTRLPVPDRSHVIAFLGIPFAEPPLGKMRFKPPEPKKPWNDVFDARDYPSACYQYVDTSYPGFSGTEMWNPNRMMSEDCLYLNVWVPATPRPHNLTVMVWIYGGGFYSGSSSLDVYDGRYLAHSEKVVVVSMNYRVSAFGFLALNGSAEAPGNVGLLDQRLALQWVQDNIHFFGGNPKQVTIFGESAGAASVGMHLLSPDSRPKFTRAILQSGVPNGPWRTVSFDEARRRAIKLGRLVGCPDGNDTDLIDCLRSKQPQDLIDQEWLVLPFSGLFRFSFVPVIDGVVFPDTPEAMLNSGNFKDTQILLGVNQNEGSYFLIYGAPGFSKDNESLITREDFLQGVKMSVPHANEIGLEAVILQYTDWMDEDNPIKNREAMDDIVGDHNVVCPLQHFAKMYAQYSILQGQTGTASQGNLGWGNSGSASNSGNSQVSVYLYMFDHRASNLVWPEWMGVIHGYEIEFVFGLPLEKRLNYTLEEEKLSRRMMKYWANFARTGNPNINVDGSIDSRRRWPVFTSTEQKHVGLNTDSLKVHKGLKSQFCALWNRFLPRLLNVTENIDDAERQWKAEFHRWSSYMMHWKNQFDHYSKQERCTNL

SMILES	IC50 [1] [µM]	remaining activity at 10 µM ([1]; read-out: Residual Activity (%) AChE (10 µM), compound at 10 µM) [%]	SI (selectivity index, ratio of IC50 MAO-A to MAO-B) (MAO-B)	IC50 (MAO-B) [µM]	remaining activity at 1 µM (MAO-B) [%]	IC50 (recombinant hMAO-A) [µM]	remaining activity at 1 µM (recombinant hMAO-A; [2]) [%]	Residual Activity (%) AChE (10 µM) ([1]; compound at 10 µM) [%]	remaining activity at 10 µM [1, 3] [%]	remaining activity at 1 µM (recombinant hMAO-A; [4]) [%]	MAO-B potency relative to clorgyline (times more potent) (MAO-B)	MAO-B potency relative to lazabemide (times more potent) (MAO-B) [times]	remaining activity at 1 µM (MAO-B; compound at 1.0 µM, mean ± standard error of duplicate experiments) [%]
COc1ccc(C(=O)/C=C/c2ccc(O/N=C3\CCc4ccccc43)cc2)cc1 [COE-4]	> 40	62.1 ± 1.51	32.7	0.059 ± 0.012	4.31 ± 1.22	19.3 ± 0.21	83.7 ± 1.54						
COc1ccc(C(/C=C/c2ccccc2)=N\Oc2ccc(/C=C/C(=O)c3ccc(C)cc3)cc2)cc1 [COE-21]	9.65 ± 1.2		441.7	0.036 ± 0.0019	-2.19 ± 0.08	15.9 ± 0.59		49.4 ± 2.90	< 50	85.8 ± 1.47			
O=C(/C=C/c1ccc(ON=C(c2ccccc2)c2ccccc2)cc1)c1ccc(F)cc1 [COE-7]	> 40		392.9	0.028 ± 0.0016	2.48 ± 0.15	11 ± 1.22			76.2 ± 1.02	91.7 ± 6.43	68 times and 67 times	1.5	
COc1ccc(/C=C/C(=N/Oc2ccc(/C=C/C(=O)c3ccc(OC)cc3)cc2)c2ccc(OC)cc2)cc1 [COE-20]	11.2 ± 1.33		>28.6	0.35 ± 0.011	21 ± 0.42	> 10			60.6 ± 5.74	89.7 ± 4.51			
COc1ccc(C(/C=C/c2ccccc2)=N\Oc2ccc(C(C)=O)cc2)cc1 [COE-16]	> 40			> 10	97.8 ± 0.08	> 10			77.3 ± 6.62	93.4 ± 3.44			
COc1ccc(/C=C/C(=O)c2ccc(O/N=C(/C=C/c3ccc(OC)cc3)c3ccc(OC)cc3)cc2)cc1 [COE-23]	9.16 ± 0.021		>66.7	0.15 ± 0.021	25.8 ± 4.78	> 10			57.3 ± 1.34	85.1 ± 4.01			
COc1ccc(C(=O)/C=C/c2ccc(ON=C(c3ccccc3)c3ccccc3)cc2)cc1 [COE-3]	> 40		>208.3	0.048 ± 0.021	21.6 ± 4.88	> 10			77.1 ± 0.66	87.3 ± 1			
C/C(=N\Oc1ccc(/C=C/C(=O)c2cccc3ccccc23)cc1)c1cccs1 [COE-9]	8.39 ± 2.14		20.6	0.037 ± 0.0057	9.91 ± 1.83	7.64 ± 0.16	71.4 ± 0.51	46.7 ± 4.27	< 50				
COc1ccc(C(/C=C/c2ccccc2)=N\Oc2ccc(C(=O)/C=C/c3cc(OC)c(OC)c(OC)c3)cc2)cc1 [COE-24]	> 40			> 10	87.4 ± 2.81	> 10			72.5 ± 2.91	88.9 ± 0.98			
COc1ccc(/C=C/C(=N/Oc2ccc(/C=C/C(=O)c3ccccc3)cc2)c2ccc(OC)cc2)cc1 [COE-19]	5.35 ± 0.68		>31.3	0.32 ± 0.015	19.2 ± 3.06	> 10		39.0 ± 0.45	< 50	85.3 ± 0.99			
COc1ccc(/C=C/C(=O)c2ccc(O/N=C(\C)c3ccc(F)cc3)cc2)cc1 [COE-11]	> 40		>5.5	1.82 ± 0.022	68.5 ± 1.83	> 10			87.2 ± 0.47	86 ± 6.58			
COc1ccc(C(=O)/C=C/c2ccc(O/N=C(\C)c3ccc(OC)cc3)cc2)cc1 [COE-2]	15.2 ± 0.55		>38.5	0.26 ± 0.055	27.6 ± 2.44	> 10			66.5 ± 3.36	69.9 ± 0.51			
COc1cccc(C(=O)/C=C/c2ccc(O/N=C(\C)c3cccc4ccccc34)cc2)c1 [COE-8]	> 40		182.9	0.042 ± 0.021		7.68 ± 0.34			70.7 ± 3.26	68.6 ± 2.74			10.5 ± 0.21
COc1ccc(/C=C/C(=O)c2ccc(O/N=C(\C)c3cccc4ccccc34)cc2)cc1OC [COE-14]	13.2 ± 0.84		>6.3	1.58 ± 0.031	63.7 ± 1.39	> 10			62.2 ± 4.19	91.1 ± 3.84			
COc1ccc(C(=O)/C=C/c2ccc(O/N=C(\C)c3ccccc3)cc2)cc1 [COE-1]	> 40		>35.7	0.28 ± 0.041	29.9 ± 5.25	> 10			77.6 ± 2.64	94.4 ± 2.99			
